Reference: US12319676B2, “Substituted amide compounds useful as farnesoid X receptor modulators” (BRISTOL-MYERS SQUIBB COMPANY, priority 2019, dated 2025)

Biological target: T1, human FXR (Homo sapiens, UniProt Q96RI1)
T1 construct: expressed in transfected cells; host or cells: HEK293 cells stably carrying a 5xGal4 response element-luciferase reporter, transiently transfected with pcDNA3.1-Gal4-FXR
T1 sequence (Q96RI1 262-486 limits assumed): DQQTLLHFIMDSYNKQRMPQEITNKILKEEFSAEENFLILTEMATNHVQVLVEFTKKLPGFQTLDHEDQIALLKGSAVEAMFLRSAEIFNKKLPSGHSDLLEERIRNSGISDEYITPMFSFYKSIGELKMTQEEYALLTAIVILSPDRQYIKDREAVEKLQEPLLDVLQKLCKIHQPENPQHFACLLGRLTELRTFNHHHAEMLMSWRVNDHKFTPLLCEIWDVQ
Test: transient human FXR/Gal4-luciferase reporter assay
Type: cell-based
Conditions: Gal4-hFXR fusion construct, luciferase reporter in HEK293 cells; overnight incubation; response as percentage of 8 μM GW-4064 control
Experimental: The exemplified compounds of the present invention were tested in the transient human FXR/Gal4-luciferase reporter assay, and assay results were reported in Table 1 and Examples 1 to 3 together with other analytical data. A Gal4-hFXR fusion construct reporter system was used as the primary assay to characterize compound activity. A construct including 5 copies of the Gal4 promoter response element upstream of a firefly luciferase reporter cDNA was stably expressed in HEK293 cells. This reporter cell line was maintained in Dulbecco's Modified Eagle's medium (DMEM; Gibco) supplemented with 1% penicillin-streptomycin (P/S) solution, 500 μg/mL Zeocin and 10% charcoal/dextran-treated fetal bovine serum (cs-FBS) at 37° C. in a humidified 5% CO2 atmosphere. Another plasmid was constructed in which the human cytomegalovirus promoter in the pcDNA3.1 vector directs the expression of the cDNA encoding a fusion protein comprised of the DNA binding domain from the Gal4 transcription factor fused to the ligand binding domain from human FXR. The day prior to transfection, the reporter cells in culture are detached from the plate with trypsin and plated into a T75 flask at a sufficient density to achieve approximately 90% confluence the next morning. The transfection reagents are prepared by separately diluting 25 μg of the pcDNA3.1-Gal4-FXR plasmid into 1.87 mL of Opti-MEM (Thermo-Fisher), and 40 μL of Lipofectamine 2000 (Thermo-Fisher) into 1.87 mL of Opti-MEM, and then adding the diluted DNA solution into the diluted Lipofectamine 2000 solution and incubating at room temperature for 15-20 minutes. The mixture is further diluted with 10 mL of a solution comprised of DMEM, 10% cs-FBS, and 1% P/S immediately prior to transferring to the cells. The maintenance culture media is aspirated from the cells and the final transfection mixture is added before the cells are incubated overnight at 37° C. in a humidified 5% CO2 atmosphere. This protocol can be scaled up, and the transiently transfected cells can be cryopreserved in an assay-ready format. For compound testing, 100 nL of the compounds (serial dilutions in DMSO) are dispensed with an Echo acoustic dispenser (Labcyte) into the wells of a Corning/Costar clear bottom 384-well white plate. The transfected cells are harvested, counted, and diluted such that 10-25,000 cells in 25 μL are plated into each well of the 384-well compound assay plate. The compound-treated cells are incubated overnight at 37° C. in a humidified 5% CO2 atmosphere. The next morning 25 μL of Steady-Glo (Promega) are added to each well of the plate, the mixture is incubated for 15 min. with shaking, and luminescence is measured on an Envision (Perkin Elmer) plate reader. Background counts from cells treated with DMSO alone are subtracted from all raw counts, and the corrected values are converted to a percentage of the control response attained with 8 μM GW-4064.

Row | Structure (SMILES) | EC50 [nM]
1 | CC(C)(C)c1noc(C23CCC(CN(C(=O)C4CCC(F)(F)CC4)c4cccc(C#N)c4)(CC2)CC3)n1 [Example 42, N-((4-(3-(tert-butyl)-1,2,4-oxadiazol-5-yl)bicyclo[2.2.2]octan-1-yl)methyl)-N-(3-cyanophenyl)-4,4-difluorocyclohexane-1-carboxamide] | 1250
2 | CC(C)(C)c1noc(C23CCC(CN(C(=O)C45CC(F)(C4)C5)c4cccc(P(C)(C)=O)c4)(CC2)CC3)n1 [Example 43, N-((4-(3-(tert-butyl)-1,2,4-oxadiazol-5-yl)bicyclo[2.2.2]octan-1-yl)methyl)-N-(3-(dimethylphosphoryl)phenyl)-3-fluorobicyclo[1.1.1]pentane-1-carboxamide] | 4000
3 | CC(C)(C)c1noc(C23CCC(CN(C(=O)C4CC(F)(F)C4)c4cccc(P(C)(C)=O)c4)(CC2)CC3)n1 [Example 44, N-((4-(3-(tert-butyl)-1,2,4-oxadiazol-5-yl)bicyclo[2.2.2]octan-1-yl)methyl)-N-(3-(dimethylphosphoryl)phenyl)-3,3-difluorocyclobutane-1-carboxamide] | 4000
4 | CC(C)(C)c1noc(C23CCC(CN(c4cccc(P(C)(C)=O)c4)C(=O)[C@H]4C[C@](O)(C(F)(F)F)C4)(CC2)CC3)n1 [Example 45, (1S,3S)-N-((4-(3-(tert-butyl)-1,2,4-oxadiazol-5-yl)bicyclo[2.2.2]octan-1-yl)methyl)-N-(3-(dimethylphosphoryl)phenyl)-3-hydroxy-3-(trifluoromethyl)cyclobutane-1-carboxamide] | 4000
5 | CC(C)(C)c1noc(C23CCC(CN(C(=O)C4CCOCC4)c4cccc(P(C)(C)=O)c4)(CC2)CC3)n1 [Example 46, N-((4-(3-(tert-butyl)-1,2,4-oxadiazol-5-yl)bicyclo[2.2.2]octan-1-yl)methyl)-N-(3-(dimethylphosphoryl)phenyl)tetrahydro-2H-pyran-4-carboxamide] | 4000
6 | CC(C)(C)c1noc(C23CCC(CN(C(=O)C4CCS(=O)(=O)CC4)c4cccc(P(C)(C)=O)c4)(CC2)CC3)n1 [Example 47, N-((4-(3-(tert-butyl)-1,2,4-oxadiazol-5-yl)bicyclo[2.2.2]octan-1-yl)methyl)-N-(3-(dimethylphosphoryl)phenyl)tetrahydro-2H-thiopyran-4-carboxamide 1,1-dioxide] | 4000
7 | CC(F)(F)c1ccc(C23CCC(CN(C(=O)C45CC(F)(C4)C5)c4cccc(Br)c4)(CC2)CC3)nc1 [Example 48, N-(3-bromophenyl)-N-((4-(5-(1,1-difluoroethyl)pyridin-2-yl)bicyclo[2.2.2]octan-1-yl)methyl)-3-fluorobicyclo[1.1.1]pentane-1-carboxamide] | 288
8 | CC(F)(F)c1ccc(C23CCC(CN(C(=O)C45CC(F)(C4)C5)c4cccc(C#N)c4)(CC2)CC3)nc1 [Example 49, N-(3-cyanophenyl)-N-((4-(5-(1,1-difluoroethyl)pyridin-2-yl)bicyclo[2.2.2]octan-1-yl)methyl)-3-fluorobicyclo[1.1.1]pentane-1-carboxamide] | 327
9 | CC(F)(F)c1ccc(C23CCC(CN(c4cccc(C#N)c4)C(=O)[C@H]4C[C@@](C)(O)C4)(CC2)CC3)nc1 [Example 50, (1S,3S)-N-(3-cyanophenyl)-N-((4-(5-(1,1-difluoroethyl)pyridin-2-yl)bicyclo[2.2.2]octan-1-yl)methyl)-3-hydroxy-3-methylcyclobutane-1-carboxamide] | 1190
10 | CCOc1cccc(N(CC23CCC(c4nc(C5CC5)no4)(CC2)CC3)C(=O)C23CC(F)(C2)C3)c1 [Example 52, N-((4-(3-cyclopropyl-1,2,4-oxadiazol-5-yl)bicyclo[2.2.2]octan-1-yl)methyl)-N-(3-ethoxyphenyl)-3-fluorobicyclo[1.1.1]pentane-1-carboxamide] | 102
11 | CCOc1cccc(N(CC23CCC(c4nc(C5CC5)no4)(CC2)CC3)C(=O)[C@H]2C[C@](O)(C(F)(F)F)C2)c1 [Example 54, N-((4-(3-cyclopropyl-1,2,4-oxadiazol-5-yl)bicyclo[2.2.2]octan-1-yl)methyl)-N-(3-ethoxyphenyl)-3-hydroxy-3-(trifluoromethyl)cyclobutane-1-carboxamide] | 938
12 | CCOc1cccc(N(CC23CCC(c4nc(C5CC5)no4)(CC2)CC3)C(=O)C2CCOCC2)c1 [Example 55, N-((4-(3-cyclopropyl-1,2,4-oxadiazol-5-yl)bicyclo[2.2.2]octan-1-yl)methyl)-N-(3-ethoxyphenyl)tetrahydro-2H-pyran-4-carboxamide] | 320
13 | COc1cccc(N(CC23CCC(c4nc(C5CC5)no4)(CC2)CC3)C(=O)C23CC(F)(C2)C3)c1 [Example 58, N-((4-(3-cyclopropyl-1,2,4-oxadiazol-5-yl)bicyclo[2.2.2]octan-1-yl)methyl)-3-fluoro-N-(3-methoxyphenyl)bicyclo[1.1.1]pentane-1-carboxamide] | 345
14 | COc1cccc(N(CC23CCC(c4nc(C5CC5)no4)(CC2)CC3)C(=O)C2CCS(=O)(=O)CC2)c1 [Example 61, N-((4-(3-cyclopropyl-1,2,4-oxadiazol-5-yl)bicyclo[2.2.2]octan-1-yl)methyl)-N-(3-methoxyphenyl)tetrahydro-2H-thiopyran-4-carboxamide 1,1-dioxide] | 4000

The remaining compounds from weak to strong by EC50, led by results:

Row | EC50 [nM] | Structure (SMILES)
15 | 4000 | CCOc1cccc(N(CC23CCC(c4nc(C5CC5)no4)(CC2)CC3)C(=O)C2CCS(=O)(=O)CC2)c1 [Example 56, N-((4-(3-cyclopropyl-1,2,4-oxadiazol-5-yl)bicyclo[2.2.2]octan-1-yl)methyl)-N-(3-ethoxyphenyl)tetrahydro-2H-thiopyran-4-carboxamide 1,1-dioxide]
16 | 1330 | CC(F)(F)c1ccc(C23CCC(CN(c4cccc(C#N)c4)C(=O)[C@H]4C[C@](O)(C(F)(F)F)C4)(CC2)CC3)nc1 [Example 51, (1S,3S)-N-(3-cyanophenyl)-N-((4-(5-(1,1-difluoroethyl)pyridin-2-yl)bicyclo[2.2.2]octan-1-yl)methyl)-3-hydroxy-3-(trifluoromethyl)cyclobutane-1-carboxamide]
17 | 902 | COc1cccc(N(CC23CCC(c4nc(C5CC5)no4)(CC2)CC3)C(=O)C2CCOCC2)c1 [Example 60, N-((4-(3-cyclopropyl-1,2,4-oxadiazol-5-yl)bicyclo[2.2.2]octan-1-yl)methyl)-N-(3-methoxyphenyl)tetrahydro-2H-pyran-4-carboxamide]
18 | 673 | COc1cccc(N(CC23CCC(c4nc(C5CC5)no4)(CC2)CC3)C(=O)C2CC(F)(F)C2)c1 [Example 59, N-((4-(3-cyclopropyl-1,2,4-oxadiazol-5-yl)bicyclo[2.2.2]octan-1-yl)methyl)-3,3-difluoro-N-(3-methoxyphenyl)cyclobutane-1-carboxamide]
19 | 441 | CCOc1cccc(N(CC23CCC(c4nc(C5CC5)no4)(CC2)CC3)C(=O)C2CC(F)(F)C2)c1 [Example 53, N-((4-(3-cyclopropyl-1,2,4-oxadiazol-5-yl)bicyclo[2.2.2]octan-1-yl)methyl)-N-(3-ethoxyphenyl)-3,3-difluorocyclobutane-1-carboxamide]
20 | 304 | COc1cccc(N(CC23CCC(c4nc(C5CC5)no4)(CC2)CC3)C(=O)[C@H]2C[C@](O)(C(F)(F)F)C2)c1 [Example 57, (1S,3S)—N-((4-(3-cyclopropyl-1,2,4-oxadiazol-5-yl)bicyclo[2.2.2]octan-1-yl)methyl)-3-hydroxy-N-(3-methoxyphenyl)-3-(trifluoromethyl)cyclobutane-1-carboxamide]
21 | 171 | CC(C)(C)c1noc(C23CCC(CN(C(=O)C4CC(F)(F)C4)c4cccc(C#N)c4)(CC2)CC3)n1 [Example 41, N-((4-(3-(tert-butyl)-1,2,4-oxadiazol-5-yl)bicyclo[2.2.2]octan-1-yl)methyl)-N-(3-cyanophenyl)-3,3-difluorocyclobutane-1-carboxamide]
